Test results reported in patent US20170127673A1, “COMPOSITIONS AND METHODS OF USE OF BETA-HYDROXY-BETA-METHYLBUTYRATE (HMB) AS AN ANIMAL FEED ADDITIVE” (Metabolic Technologies, Inc., priority 2015, published 2017).
Marks after values point to notes of the source that are not given here.

Legend:
[1] = test system: Salmonella enterica subsp. enterica Serovar Enteritidis (ATCC 13076); experiment: Overnight enrichment of subsamples to recover damaged Salmonella (presence/absence); type: cell-based; details: for Salmonella growth in enriched samples: Study 1, 0.9 and 1.5%
Experimental: Enriched samples were then spread plated to XLD, incubated at 37° C. for 24 h, and growth of black colonies typical for Salmonella were noted (presence/absence result, not quantitative).
From the coated and inoculated samples, 25 g subsamples were collected after the designated number of storage days. The 25 g subsample was mixed with 225 ml of buffered peptone water (BPW; Becton, Dickinson and Company, Franklin Lakes, N.J.) and stomached for 15 seconds to homogenize. The homogenate was serially diluted using BPW and spread plated onto Xylose Lysine Desoxycholate agar (XLD; Becton, Dickinson and Company, Franklin Lakes, N.J.) in duplicate. All inoculated XLD plates were incubated at 37° C. for 24 hours. After incubation, plates were enumerated by counting black colonies, typical for Salmonella. The number of observed colonies was multiplied by the dilution factor to determine the total count in cfu/g. Representative isolates from day 0 were confirmed as Salmonella through serotyping to ensure the recovered counts represent the inoculated culture. Counts for the positive and negative controls were also recorded. In addition, on the first sample date that counts of zero were recovered, the subsample was enriched overnight to allow damaged Salmonella cells to be recovered. Enriched samples were spread plated to XLD, incubated at 37° C. for 24 hours, and growth of black colonies typical for Salmonella were noted (presence/absence result, not quantitative).
Based on the results from enumeration on day 1, 2, 7 and 14, the subsample was retained and enriched to allow damaged cells to be recovered. Enriched samples were spread plated to XLD.

[2] = test system: Salmonella enterica subsp. enterica Serovar Enteritidis (ATCC 13076); experiment: Salmonella enumeration on HMB-coated, inoculated pet food kibbles (Studies 1-3); type: cell-based
[3] = after HMB is fed; cited from earlier work
[4] = healthy young or old adults; cited from earlier work

## CC(C)(O)CC(=O)O [HMB, β-hydroxy-β-methylbutyrate]
[1]; day 1 and 2
  Salmonella growth in enriched samples: positive
[1]; day 7 and 14
  Salmonella growth in enriched samples: negative
[2]; Study 1, both treatments (0.9 and 1.5%), day 1
  Salmonella enumeration (limit of detection): < 100 cfu/g
[2]; Study 1, both treatments (0.9 and 1.5%), day 2, 7 and 14
  Salmonella enumeration (limit of detection): < 10 cfu/g
[2]; Study 1, coating at 0.9 and 1.5%, 14-day test period
  Reduction of Salmonella artificially inoculated to the kibble: effective
[3]
  Loss of HMB to urine: 20-50%
[4]
  Side effects: no side effects

## CC(C)(O)CC(=O)O [HMBFA, β-hydroxy-β-methylbutyric acid]
[1]; Study 2, treatment levels below limit of detection on enumeration days 2, 7 and 14
  Salmonella growth in enriched subsamples: positive
[2]; Study 1, 0.9% (w:w) coating, Day 0
  Salmonella levels in coated kibbles: 5.59 ± 0.22 log10 CFU/g
[2]; Study 1, 0.9% (w:w) coating, Day 1, below limit of detection of 100 CFU/g
  Salmonella levels in coated kibbles: 0.00 ± 0^b log10 CFU/g
[2]; Study 1, 0.9% (w:w) coating, Day 2, below limit of detection of 10 CFU/g
  Salmonella levels in coated kibbles: 0.00 ± 0^c log10 CFU/g
[2]; Study 1, 0.9% (w:w) coating, Day 7, below limit of detection of 10 CFU/g
  Salmonella levels in coated kibbles: 0.00 ± 0^c log10 CFU/g
[2]; Study 1, 0.9% (w:w) coating, Day 14, below limit of detection of 10 CFU/g
  Salmonella levels in coated kibbles: 0.00 ± 0^c log10 CFU/g
[2]; Study 1, 0.9 and 1.5% (w:w)
  Time to elimination of Salmonella inoculated onto the kibbles: ≤ 24 h
[2]; Study 1, 1.5% (w:w) coating, Day 0
  Salmonella levels in coated kibbles: 4.88 ± 0.19 log10 CFU/g
[2]; Study 1, 1.5% (w:w) coating, Day 1, below limit of detection of 100 CFU/g
  Salmonella levels in coated kibbles: 0.00 ± 0^b log10 CFU/g
[2]; Study 1, 1.5% (w:w) coating, Day 2, below limit of detection of 10 CFU/g
  Salmonella levels in coated kibbles: 0.00 ± 0^c log10 CFU/g
[2]; Study 1, 1.5% (w:w) coating, Day 7, below limit of detection of 10 CFU/g
  Salmonella levels in coated kibbles: 0.00 ± 0^c log10 CFU/g
[2]; Study 1, 1.5% (w:w) coating, Day 14, below limit of detection of 10 CFU/g
  Salmonella levels in coated kibbles: 0.00 ± 0^c log10 CFU/g
[2]; Study 2, 0.1% (w:w) coating, Day 0
  Salmonella levels in coated kibbles: 5.61±0.19 log10 CFU/g
[2]; Study 2, 0.1% (w:w) coating, Day 1
  Salmonella levels in coated kibbles: 3.50 ± 0.12 log10 CFU/g
[2]; Study 2, 0.1% (w:w) coating, Day 2
  Salmonella levels in coated kibbles: 2.62 ± 0.26 log10 CFU/g
[2]; Study 2, 0.1% (w:w) coating, Day 7
  Salmonella levels in coated kibbles: 0.87 ± 0.47 log10 CFU/g
[2]; Study 2, 0.1% (w:w) coating, Day 14, below limit of detection of 10 CFU/g
  Salmonella levels in coated kibbles: 0.00 ± 0^b log10 CFU/g
[2]; Study 2, 0.3% (w:w) coating, Day 0
  Salmonella levels in coated kibbles: 5.62±0.06 log10 CFU/g
[2]; Study 2, 0.3% (w:w) coating, Day 1
  Salmonella levels in coated kibbles: 2.85 ± 0.16 log10 CFU/g
[2]; Study 2, 0.3% (w:w) coating, Day 2
  Salmonella levels in coated kibbles: 1.63 ± 0.32 log10 CFU/g
[2]; Study 2, 0.3% (w:w) coating, Day 7
  Salmonella levels in coated kibbles: 0.67 ± 0.33 log10 CFU/g
[2]; Study 2, 0.3% (w:w) coating, Day 14, below limit of detection of 10 CFU/g
  Salmonella levels in coated kibbles: 0.00 ± 0^b log10 CFU/g
[2]; Study 2, 0.5% (w:w) coating, Day 0
  Salmonella levels in coated kibbles: 5.60±0.26 log10 CFU/g
[2]; Study 2, 0.5% (w:w) coating, Day 1
  Salmonella levels in coated kibbles: 2.09 ± 0.28 log10 CFU/g
[2]; Study 2, 0.5% (w:w) coating, Day 2
  Salmonella levels in coated kibbles: 0.93 ± 0.52 log10 CFU/g
[2]; Study 2, 0.5% (w:w) coating, Day 7, below limit of detection of 10 CFU/g
  Salmonella levels in coated kibbles: 0.00 ± 0^b log10 CFU/g
[2]; Study 2, 0.5% (w:w) coating, Day 14, below limit of detection of 10 CFU/g
  Salmonella levels in coated kibbles: 0.00 ± 0^b log10 CFU/g
[2]; Study 2, 0.5% treatment, days 2, 7 and 14
  Salmonella enumeration (limit of detection): < 10 CFU/g
[2]; Study 2, by day 14
  Lowest coating level effective in eliminating the Salmonella inoculum: around 0.1 % (w:w)
[2]; Study 2, day 14 across all treatments
  Salmonella enumeration (limit of detection): < 10 CFU/g

## calcium β-hydroxy-β-methylbutyrate [CaHMB]
[1]; Study 3, days 7 and 14 for 0.5, 0.9, 1.5%, day 14 for 0.1 and 0.3%
  Salmonella growth in enriched subsamples: no Salmonella growth
[2]; Study 3, 0.1% (w:w) powder coating, Day 0
  Salmonella levels in coated kibbles: 7.19±0.04 log10 CFU/g
[2]; Study 3, 0.1% (w:w) powder coating, Day 1
  Salmonella levels in coated kibbles: 7.11 ± 0.08 log10 CFU/g
[2]; Study 3, 0.1% (w:w) powder coating, Day 2
  Salmonella levels in coated kibbles: 6.84 ± 0.17 log10 CFU/g
[2]; Study 3, 0.1% (w:w) powder coating, Day 7
  Salmonella levels in coated kibbles: 3.18 ± 0.03^ log10 CFU/g
[2]; Study 3, 0.1% (w:w) powder coating, Day 14, below limit of detection of 10 CFU/g
  Salmonella levels in coated kibbles: 0 ± 0^b log10 CFU/g
[2]; Study 3, 0.3% (w:w) powder coating, Day 0
  Salmonella levels in coated kibbles: 7.17±0.07 log10 CFU/g
[2]; Study 3, 0.3% (w:w) powder coating, Day 1
  Salmonella levels in coated kibbles: 7.01 ± 0.07 log10 CFU/g
[2]; Study 3, 0.3% (w:w) powder coating, Day 2
  Salmonella levels in coated kibbles: 6.26 ± 0.03 log10 CFU/g
[2]; Study 3, 0.3% (w:w) powder coating, Day 7
  Salmonella levels in coated kibbles: 3.17 ± 0.04^ log10 CFU/g
[2]; Study 3, 0.3% (w:w) powder coating, Day 14, below limit of detection of 10 CFU/g
  Salmonella levels in coated kibbles: 0 ± 0^b log10 CFU/g
[2]; Study 3, 0.5% (w:w) powder coating, Day 0
  Salmonella levels in coated kibbles: 7.09±0.04 log10 CFU/g
[2]; Study 3, 0.5% (w:w) powder coating, Day 1
  Salmonella levels in coated kibbles: 6.15 ± 0.11 log10 CFU/g
[2]; Study 3, 0.5% (w:w) powder coating, Day 2
  Salmonella levels in coated kibbles: 5.87 ± 0.20 log10 CFU/g
[2]; Study 3, 0.5% (w:w) powder coating, Day 7, below limit of detection of 10 CFU/g
  Salmonella levels in coated kibbles: 0 ± 0^b log10 CFU/g
[2]; Study 3, 0.5% (w:w) powder coating, Day 14, below limit of detection of 10 CFU/g
  Salmonella levels in coated kibbles: 0 ± 0^b log10 CFU/g
[2]; Study 3, 0.5, 0.9 and 1.5% coated kibbles, day 7
  Salmonella enumeration counts: below the limit of detection
[2]; Study 3, 0.9% (w:w) powder coating, Day 0
  Salmonella levels in coated kibbles: 7.08±0.12 log10 CFU/g
[2]; Study 3, 0.9% (w:w) powder coating, Day 1
  Salmonella levels in coated kibbles: 6.27 ± 0.06 log10 CFU/g
[2]; Study 3, 0.9% (w:w) powder coating, Day 2
  Salmonella levels in coated kibbles: 6.03 ± 0.05 log10 CFU/g
[2]; Study 3, 0.9% (w:w) powder coating, Day 7, below limit of detection of 10 CFU/g
  Salmonella levels in coated kibbles: 0 ± 0^b log10 CFU/g
[2]; Study 3, 0.9% (w:w) powder coating, Day 14, below limit of detection of 10 CFU/g
  Salmonella levels in coated kibbles: 0 ± 0^b log10 CFU/g
[2]; Study 3, 1.5% (w:w) powder coating, Day 0
  Salmonella levels in coated kibbles: 7.04±0.13 log10 CFU/g
[2]; Study 3, 1.5% (w:w) powder coating, Day 1
  Salmonella levels in coated kibbles: 6.24 ± 0.07 log10 CFU/g
[2]; Study 3, 1.5% (w:w) powder coating, Day 2
  Salmonella levels in coated kibbles: 5.87 ± 0.09 log10 CFU/g
[2]; Study 3, 1.5% (w:w) powder coating, Day 7, below limit of detection of 10 CFU/g
  Salmonella levels in coated kibbles: 0 ± 0^b log10 CFU/g
[2]; Study 3, 1.5% (w:w) powder coating, Day 14, below limit of detection of 10 CFU/g
  Salmonella levels in coated kibbles: 0 ± 0^b log10 CFU/g
[2]; Study 3, all treated kibbles, day 14
  Salmonella enumeration counts (limit of detection): < 10 CFU/g
[2]; Study 3, powdered form, lower levels eliminating after 14 days, higher levels during first week
  Attenuation of Salmonella on kibbles: very effective
